Measured values as given in patent publication US12357711B2, “PSMA binding dual mode radiotracer and therapeutic” (Technische Universität München, priority 2019, dated 2025).
Values joined by “and” are separate entries in the source; they are usually repeats but may differ in a detail not shown here. Equal entries are not always repeated. Where two headings read alike, the source gives them in different places. Marks after values point to notes of the source that are not given here.

What was measured:
[1] = tested on: LNCaP tumor bearing mouse; assay: Radio-TLC analysis of intact tracer and 18F-fluoride in blood, organ and urine samples, 30 min p.i.; assay type: in vivo, mice
Description: For radio-thin-layer chromatography, aluminum sheets coated with silica gel 60 RP-18 F254s were used with a mobile phase consisting of a 3:2 mixture (v/v) of MeCN in H2O supplemented with 10% of 2 M aqueous NaOAc and 1% of TFA. Analysis was performed using either a Scan-RAM radio-TLC detector (LabLogic Systems Ltd., Sheffield, United Kingdom) or a CR 35 BIO phosphorimager (Duerr Medical GmbH, Bietigheim-Bissingen, Germany).
In order to quantify the relative uptake of each isomer (rhPSMA-7.1-7.4), a tumor-bearing male CB-17-SCID mouse was injected with the racemic mixture of rhPSMA-7 (180-280 MBq, SA=247-349 GBq/μmol, produced at the Klinikum rechts der Isar in a fully automated procedure). The animal was left under anesthesia for 30 min and sacrificed. Urine, blood, liver, kidneys and tumor were collected and processed to the hereafter described procedures. The urine sample was centrifuged for 5 min at 9000 rpm to yield a clear solution and directly subjected to radio-HPLC analysis. Blood was diluted to 1 mL with H2O and centrifuged twice at 13000 g for 5 min. The supernatant was collected and loaded on a Strata X cartridge (33 μm Polymeric Reversed Phase 500 mg, pre-conditioned with 5 mL MeOH, followed by 5 mL H2O). After washing with 5 mL H2O, the cartridge was eluted with a 6:4 mixture (v/v) of MeCN in H2O, supplemented with 1% TFA. The eluate was diluted with water and analysed by radio-HPLC. Tumour, kidneys and liver were homogenised using either a Potter-Elvehjem tissue grinder (Kontes Glass Co, Vineland, USA) or a MM-400 ball mill (Retsch GmbH, Haan, Germany).
The organs (tumour, kidney, liver) were separately homogenised in a 2 mL tube together with 3 grinding balls (3 mm diameter) and 1 mL of extraction buffer (850 μL 1 M HEPES pH7.4, 100 μL 20 mM PMPA and 100 μL 1M NaCl) for 10 min at 30 Hz. The homogenate was centrifuged at 13000 g for 5 min and the supernatant was collected. Subsequently, the pellet was suspended in 1 mL of extraction buffer and homogenized again with the ball mill for 10 min at 30 Hz. After centrifugation (13000 g, 5 min), both supernatants were combined and loaded on a Strata X cartridge (33 μm Polymeric Reversed Phase 500 mg, pre-conditioned with 5 mL MeOH, followed by 5 mL H2O). After washing with 5 mL H2O, the cartridge was eluted with a 6:4 mixture (v/v) of MeCN in H2O, supplemented with 1% TFA. The eluate of each organ was diluted with water and analysed by radio-HPLC.
Radio-TLC Analysis was carried out a) on urine samples by directly subjecting a small volume onto a TLC strip, b) by analysis of a small volume of the non-immobilized activity during the SPE process (the ‘breakthrough fraction’), and c) by analysis of a small volume of the cartridge eluates.
Since none of the reagents and salts normally used for protein precipitation are tested for cold fluoride and to avoid possible liberation of F-18-fluoride from the tracer by isotopic exchange, protein precipitation was not implemented in the sample preparation process—although such protein load often result in limited peak separation, peak tailing and activity that sticks at the start line. The solutions obtained after tissue extraction (or blood centrifugation) were directly used for TLC analysis.

PSMA = molecular target: T1, PSMA (Homo sapiens, UniProt Q04609); assay: Determination of IC50: PSMA affinity, competitive binding on LNCaP cells against ([125I]I-BA)KuE; conditions: LNCaP cells, [125I]IB-KuE c=0.2 nM, 1 h, 4° C.
T1 construct: endogenous in cells; host or cells: LNCaP cells
T1 sequence (Q04609 whole entry): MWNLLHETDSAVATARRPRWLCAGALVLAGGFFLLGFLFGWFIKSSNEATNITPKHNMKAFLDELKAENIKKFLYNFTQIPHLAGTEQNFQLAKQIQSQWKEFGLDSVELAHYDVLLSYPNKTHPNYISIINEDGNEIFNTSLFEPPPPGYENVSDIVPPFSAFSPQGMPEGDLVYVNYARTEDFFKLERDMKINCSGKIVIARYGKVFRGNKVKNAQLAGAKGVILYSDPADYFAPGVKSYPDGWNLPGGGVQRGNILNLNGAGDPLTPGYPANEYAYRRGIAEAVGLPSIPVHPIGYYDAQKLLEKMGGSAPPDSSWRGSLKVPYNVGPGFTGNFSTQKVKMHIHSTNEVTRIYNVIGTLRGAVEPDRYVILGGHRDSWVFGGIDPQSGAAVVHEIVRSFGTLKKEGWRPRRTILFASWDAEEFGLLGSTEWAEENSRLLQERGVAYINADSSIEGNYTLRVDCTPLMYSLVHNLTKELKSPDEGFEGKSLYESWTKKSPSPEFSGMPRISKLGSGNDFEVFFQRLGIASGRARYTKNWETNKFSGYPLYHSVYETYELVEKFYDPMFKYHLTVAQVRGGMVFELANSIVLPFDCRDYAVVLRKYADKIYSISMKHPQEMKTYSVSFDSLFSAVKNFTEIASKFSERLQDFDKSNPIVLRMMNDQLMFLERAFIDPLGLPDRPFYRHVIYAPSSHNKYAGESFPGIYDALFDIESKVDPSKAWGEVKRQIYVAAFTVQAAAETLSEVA
Description: Data are expressed as mean±SD (n=3, in 3 different experiments).
After removal of the culture medium, the cells were treated once with 500 μL of HBSS (Hank's balanced salt solution, Biochrom, Berlin, Germany, with addition of 1% bovine serum albumin (BSA)) and left 15 min on ice for equilibration in 200 μL HBSS (1% BSA). […] Quantification of bound and free radioligand was accomplished in a γ-counter.

[2] = tested on: PSMA-positive LNCaP cells; assay: Internalization in LNCaP cells, normalized to ([125I]I-BA)KuE; assay type: cell-based; conditions: LNCaP cells, 1 hour, 37° C.
Description: Data is corrected for non-specific binding ([…]) and expressed as mean±SD (n=3).
Subsequent to the removal of the culture medium, the cells were washed once with 500 μL DMEM-F12 (5% BSA) and left to equilibrate for at least 15 min at 37° C. in 200 μL DMEM-F12 (5% BSA). Each well was treated with either 25 μL of either DMEM-F12 (5% BSA) or a 100 μM PMPA solution for blockade. Next, 25 μL of the ^68Ga/^18F-labeled PSMA inhibitor (5.0 nM) was added and the cells incubated at 37° C. for 60 min. The experiment was terminated by placing the 24-well plate on ice for 3 min and consecutive removal of the medium. Each well was rinsed with 250 μL HBSS and the fractions from these first two steps combined, representing the amount of free radioligand. Removal of surface bound activity was accomplished by incubation of the cells with 250 μL of ice-cold PMPA (10 μM in PBS) solution for 5 min and rinsed again with another 250 μL of ice-cold PBS. The internalized activity was determined by incubation of the cells in 250 μL 1 M NaOH and the combination with the fraction of a subsequent wash step with 250 μL 1.0 M NaOH. Each experiment (control and blockade) was performed in triplicate. Free, surface bound and internalized activity was quantified in a γ-counter. […] Data were corrected for non-specific internalization and normalized to the specific-internalization observed for the radioiodinated reference compound.

[3] = Octanol-water partition coefficient (n-octanol/PBS pH 7.4); assay type: physicochemical; conditions: octanol/PBS7.4
Description: Approximately 1 MBq of the labeled tracer was dissolved in 1 mL of a 1:1 mixture (by volumes) of phosphate buffered saline (PBS, pH 7.4) and n-octanol in an Eppendorf tube. After vigorous mixing of the suspension for 3 minutes at room temperature, the vial was centrifuged at 15000 g for 3 minutes (Biofuge 15, Heraus Sepatech, Osterode, Germany) and 100 μL aliquots of both layers were measured in a gamma counter. The experiment was repeated at least six times.
Determianation of the IogP values was carried out in phosphate buffered saline (PBS, pH 7.4) and n-octanol (=logPoct/PBS).

[4] = Phosphoimager, listed as [^18F]rhPSMA7-rac
[5] = TLC Scanner, listed as [^18F]rhPSMA7-rac

Compound	Intact tracer, Blood ([1]; Phosphoimager) [%]	Intact tracer, Kidney ([1]; Phosphoimager) [%]	Intact tracer, Tumor ([1]; Phosphoimager) [%]	^18F-Fluoride, Blood ([1]; Phosphoimager) [%]	^18F-Fluoride, Kidney ([1]; Phosphoimager) [%]	^18F-Fluoride, Tumor ([1]; Phosphoimager) [%]	Intact tracer, Liver [1, 4]	Intact tracer, Urine [1, 4]	^18F-Fluoride, Urine [1, 4]	Intact tracer, Kidney [1, 5]	Intact tracer, Urine [1, 5]	^18F-Fluoride, Kidney [1, 5]	IC50 (PSMA; HBSS+1% BSA, single measurements, read-out: individual IC50 measurements)	IC50 (PSMA; mean of individual measurements, read-out: IC50 Mean) [nM]	individual internalization rates ([2]; c=0.5 nM, single measurements)	internalization rate Mean ([2]; mean)	log P Mean ([3]; mean of individual measurements)	individual log P measurements ([3]; single measurements)
[^19F][^natGa]D/L-Dap-R/S-DOTAGA-rhPSMA7 [rhPSMA7-rac]	96.80	96.48	96.47	3.20	3.52	4.15	93.92^# % and 74.15^# %	98.55% and 95.85%	1.55% and 4.15%	94.04% and 94.58%	82.51% and 96.2%	5.96% and 5.42%						
CC(C)(C)[Si](F)(c1ccc(C(=O)NC[C@@H](NC(=O)CC[C@@H](C(=O)O)N2CCN(CC(=O)[O-])CCN(CC(=O)[O-])CCN(CC(=O)[O-])CC2)C(=O)N[C@H](CCCCNC(=O)CCC(=O)NCCC[C@@H](NC(=O)CC[C@H](NC(=O)N[C@@H](CCC(=O)O)C(=O)O)C(=O)O)C(=O)O)C(=O)O)cc1)C(C)(C)C.[Ga+3] [rhPSMA7.3, [^19F][^natGa]D-Dap-S-DOTAGA-rhPSMA7]													3.17 nM and 2.91 nM and 5.35 nM and 5.74 nM and 4.59 nM and 4.45 nM	4.37	156.6 % of [^125I]IB-KuE and 156.0 % of [^125I]IB-KuE and 171.7 % of [^125I]IB-KuE	161.41 % of [^125I]IB-KuE	−3.26	−3.06 and −3.07 and −2.86 and −3.39 and −3.33 and −3.34 and −3.20 and −3.40 and −3.41 and −3.48 and −3.49 and −3.32 and −3.45 and −3.53 and −3.43 and −3.56 and −3.03 and −3.08 and −3.02
